Data: patent publication US11884747B2, “Compstatin analogs with increased solubility and improved pharmacokinetic properties” (The Trustees of the University of Pennsylvania, priority 2018, dated 2024)

Key:
[1] = system: classical pathway of complement; assay: Classical pathway complement inhibition ELISA (C3b deposition) in normal human plasma; assay type: biochemical; settings: human plasma diluted 1:40; mean of at least three experiments
Protocol: For this purpose, microtiter wells (NUNC) were coated with 50 μl of 1% ovalbumin in PBS (pH 7.4) at ambient temperature for 2 h. The wells were blocked with 200 μl of 1% BSA in PBS for 1 h, then coated with 50 μl of 1:1000 α-ovalbumin polyclonal antibody in PBS for 1 h. Between each step, the plate was washed thrice with 200 μl of 0.05% Tween 20 in PBS (PBS-T); 30 μl of VBS (Veronal buffer 1×; 5 mM veronal, pH 7.4, containing 150 mM NaCl, 0.5 mM CaCl2 and 0.5 mM MgCl2) were placed in all but the first well of each row of the 96-well plate, and 5 μM peptide solutions in VBS were prepared. […] Human plasma diluted 1:40 in VBS was incubated for 15 min with peptide of 0.005 to 2.5 μM. After washing with PBS-T, 50 μl/well of 1:1000 goat a-human C3 HRP conjugated antibody in 1% BSA in PBS was added to the wells and incubated for 1 h at room temperature. Complement fixation indicating activation was detected by the addition of HRP substrate (0.05% ABTS and 0.1% of 30% aqueous H2O2 in 0.1 M sodium citrate, pH 4.2) and read at 405 nm. The absorbance data obtained at 405 nm were translated into % inhibition, considering 100% to be equal to complement activation in the absence of peptide. The percent inhibition was plotted against the logarithm of concentrations, and the resulting data set was fitted to the equation “log(inhibitor) vs. normalized response” using GraphPad Prism 5 (La Jolla, CA). IC50 values were obtained from the fitted parameters of the mean of at least three independent experiments. Cp40 was always used as the internal control.

human C3b = target: T1, human C3b (Homo sapiens, UniProt P01024); assay: SPR binding affinity and kinetic profile with immobilized C3b; settings: for ka, association constant / kd, dissociation constant / Kd: 25 °C; for ka, association constant / kd, dissociation constant: 1:1 Langmuir model; for Kd: KD=kd/ka, read-out: KD, equilibrium dissociation constant
T1 construct: purchased Complement Technology, Inc., Tyler, TX

[2] = for pH of the peptide solution in PBS: at the stated concentration, indicator paper
[3] = system: complement classical pathway; assay: Classical pathway activation (C3b deposition) ELISA in human plasma with or without rabbit vitreous; assay type: biochemical; settings: in the absence of vitreous
Protocol: An alternative explanation to the one presented above is that the vitreous contains additional unidentified factors that associate with the Cp40-KKK analog. To investigate whether an unidentified vitreous factor impacts the complement inhibitory activity of lysine containing compounds, complement activation assays were performed using vitreous samples. Briefly, human plasma was incubated with OVA-anti-OVA immune-complexes in the presence of serial dilutions of the Cp40-based analogs mixed with rabbit vitreous. Levels of classical pathway activation (C3b deposition) were determined by ELISA using a polyclonal anti-human C3 antibody conjugated with HRP (MP Biomedicals, Solon, OH) (FIG. 20).

T1 sequence (P01024 23-667 limits assumed): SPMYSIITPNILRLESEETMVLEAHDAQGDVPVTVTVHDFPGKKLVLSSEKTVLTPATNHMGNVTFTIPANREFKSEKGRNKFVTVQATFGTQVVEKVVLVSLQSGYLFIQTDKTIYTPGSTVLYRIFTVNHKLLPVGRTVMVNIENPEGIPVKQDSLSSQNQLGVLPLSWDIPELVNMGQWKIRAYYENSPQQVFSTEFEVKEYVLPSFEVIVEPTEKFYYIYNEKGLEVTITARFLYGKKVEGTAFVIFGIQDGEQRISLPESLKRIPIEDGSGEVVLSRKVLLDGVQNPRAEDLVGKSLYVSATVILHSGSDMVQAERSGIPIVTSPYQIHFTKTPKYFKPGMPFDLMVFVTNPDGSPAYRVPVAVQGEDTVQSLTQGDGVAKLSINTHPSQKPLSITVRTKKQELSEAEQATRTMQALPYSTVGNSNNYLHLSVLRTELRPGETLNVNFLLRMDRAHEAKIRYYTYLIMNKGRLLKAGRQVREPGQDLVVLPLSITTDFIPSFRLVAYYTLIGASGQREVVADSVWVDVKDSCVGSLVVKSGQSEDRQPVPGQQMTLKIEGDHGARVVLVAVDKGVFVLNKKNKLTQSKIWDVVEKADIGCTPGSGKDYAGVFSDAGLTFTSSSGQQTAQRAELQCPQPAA
T1 sequence (P01024 749-1663 partner limits assumed): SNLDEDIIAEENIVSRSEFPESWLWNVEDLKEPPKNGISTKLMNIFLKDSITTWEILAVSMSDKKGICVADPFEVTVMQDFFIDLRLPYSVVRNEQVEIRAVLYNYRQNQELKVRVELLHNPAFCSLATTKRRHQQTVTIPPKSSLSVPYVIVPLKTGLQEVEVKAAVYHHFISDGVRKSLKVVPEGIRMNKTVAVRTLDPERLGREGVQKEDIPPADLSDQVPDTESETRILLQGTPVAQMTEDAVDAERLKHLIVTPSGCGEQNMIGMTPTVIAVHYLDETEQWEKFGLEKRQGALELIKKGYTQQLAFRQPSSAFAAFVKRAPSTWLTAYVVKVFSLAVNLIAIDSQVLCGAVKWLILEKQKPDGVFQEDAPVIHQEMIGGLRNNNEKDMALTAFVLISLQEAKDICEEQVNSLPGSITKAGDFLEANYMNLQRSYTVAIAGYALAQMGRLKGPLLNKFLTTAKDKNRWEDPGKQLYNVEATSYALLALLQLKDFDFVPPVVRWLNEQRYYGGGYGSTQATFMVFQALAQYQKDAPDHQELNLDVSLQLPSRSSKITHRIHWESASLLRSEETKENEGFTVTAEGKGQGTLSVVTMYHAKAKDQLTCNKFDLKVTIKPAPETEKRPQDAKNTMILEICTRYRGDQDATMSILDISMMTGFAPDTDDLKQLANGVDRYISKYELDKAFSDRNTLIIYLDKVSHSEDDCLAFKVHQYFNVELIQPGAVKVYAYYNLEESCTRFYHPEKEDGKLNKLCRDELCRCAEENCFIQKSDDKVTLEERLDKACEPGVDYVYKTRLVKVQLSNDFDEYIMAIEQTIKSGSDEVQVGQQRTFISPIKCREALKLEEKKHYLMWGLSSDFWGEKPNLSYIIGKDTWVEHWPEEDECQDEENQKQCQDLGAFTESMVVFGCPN

SMILES	IC50 [1] [nM]	drop in the binding affinity toward C3b vs Cp40 (human C3b) [fold]	ka, association constant (human C3b)	kd, dissociation constant (human C3b)	Kd (human C3b) [nM]	pH of the peptide solution in PBS [2]	Conc. (mg/ml), solubility in PBS ([2]; pH 7.4) [mg/mL]	complement classical pathway inhibitory activity [3]
CC[C@H](C)[C@H](NC(=O)[C@@H](Cc1ccc(O)cc1)NC(=O)CCOCCOCCOCCOCCOCCOCCOCCOCCOCCOCCOCCOC)C(=O)N[C@H]1CSSC[C@@H](C(=O)N(C)[C@H](C(N)=O)[C@@H](C)CC)NC(=O)[C@H](CCCNC(=N)N)NC(=O)[C@H](Cc2c[nH]cn2)NC(=O)[C@H](C)NC(=O)CN(C)C(=O)[C@H](Cc2c[nH]c3ccccc23)NC(=O)[C@H](CC(=O)O)NC(=O)[C@H](CCC(N)=O)NC(=O)[C@H](Cc2cn(C)c3ccccc23)NC(=O)[C@H](C(C)C)NC1=O [mPEG(528)-Cp40]	83.5 ± 8.1	5	1.00 ± 0.27 10^6M^−1s^−1	2.45 ± 0.28 10^−3s^−1	2.58 ± 0.51	7-7.5	2.3	
CC[C@H](C)[C@H](NC(=O)[C@@H](Cc1ccc(O)cc1)NC(=O)CCOCCOCCOCCOCCOCCOCCOCCOCCOCCOCCOCCOCCOCCOCCOCCOCCOCCOCCOCCOCCOCCOCCOCCOC)C(=O)N[C@H]1CSSC[C@@H](C(=O)N(C)[C@H](C(N)=O)[C@@H](C)CC)NC(=O)[C@H](CCCNC(=N)N)NC(=O)[C@H](Cc2c[nH]cn2)NC(=O)[C@H](C)NC(=O)CN(C)C(=O)[C@H](Cc2c[nH]c3ccccc23)NC(=O)[C@H](CC(=O)O)NC(=O)[C@H](CCC(N)=O)NC(=O)[C@H](Cc2cn(C)c3ccccc23)NC(=O)[C@H](C(C)C)NC1=O [mPEG(1056)-Cp40]	52 ± 2.7		0.72 ± 0.25 10^6M^−1s^−1	2.80 ± 0.95 10^−3s^−1	3.93 ± 0.39	7-7.5		
CC[C@H](C)[C@H](NC(=O)[C@H](N)Cc1ccc(O)cc1)C(=O)N[C@H]1CSSC[C@@H](C(=O)N(C)[C@H](C(=O)N[C@@H](CCCCN)C(N)=O)[C@@H](C)CC)NC(=O)[C@H](CCCNC(=N)N)NC(=O)[C@H](Cc2c[nH]cn2)NC(=O)[C@H](C)NC(=O)CN(C)C(=O)[C@H](Cc2c[nH]c3ccccc23)NC(=O)[C@H](CC(=O)O)NC(=O)[C@H](CCC(N)=O)NC(=O)[C@H](Cc2cn(C)c3ccccc23)NC(=O)[C@H](C(C)C)NC1=O [Cp40-K, DTyr-Ile-[Cys-Val-Trp(Me)-Gln-Asp-Trp-Sar-Ala-His-Arg-Cys]-mlle-Lys—NH2]	95.6 ± 9.2			1.85 ± 0.50 10^−3s^−1	0.92 ± 0.2	7.5		inhibitory activity in a dose-dependent manner
